The source of these data is BindingDB's records for doi:10.1021/jm5008853 (University of Ferrara, 2014).

One may read the Kd as a measure of binding affinity in units of concentration.

The nature of the test: Allosteric enhancer activity at human adenosine A1 receptor expressed in CHO cell membranes assessed as [3H]NECA affinity constant at 1 uM (Kd = 0.87 +/- 0.04 nM).

On to `CC(C)(C)Cc1c(C#Cc2ccccc2)sc(N)c1C(=O)c1ccc(Cl)cc1`, for which the dissociation constant (Kd) came to 0.46 nM.
